Test results published in patent US5681836A, “Methanesulfonate salts of antipsychotic benzofuran derivatives” (Merck, Sharp & Dohme, Ltd., priority 1995, dated 1997).
pKi: −log10 of the molar value. Counter-ions that a name gives are not always drawn.

Target: T1, human dopamine D4 receptor subtype (Homo sapiens, UniProt P21917)
T1 sequence (P21917 1-419): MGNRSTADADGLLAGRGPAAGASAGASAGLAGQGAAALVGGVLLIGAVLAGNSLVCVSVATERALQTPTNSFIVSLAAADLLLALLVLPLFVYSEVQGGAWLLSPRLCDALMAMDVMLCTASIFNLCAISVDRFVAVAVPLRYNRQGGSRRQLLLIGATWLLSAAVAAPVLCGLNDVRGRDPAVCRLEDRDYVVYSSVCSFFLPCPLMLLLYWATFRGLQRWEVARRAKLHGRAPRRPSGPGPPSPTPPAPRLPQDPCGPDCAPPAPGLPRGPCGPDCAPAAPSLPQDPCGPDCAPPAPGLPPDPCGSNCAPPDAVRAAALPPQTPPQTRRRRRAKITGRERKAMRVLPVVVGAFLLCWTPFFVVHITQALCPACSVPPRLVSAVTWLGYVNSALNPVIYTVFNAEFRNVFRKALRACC
Experiment: [3H]-Spiperone binding (displacement) studies, human dopamine D4 receptor subtype expressed in clonal cell lines
Settings: 0.2 nM [3H]-spiperone for displacement; 60 min, room temperature (22° C.), pH 7.4; membranes of clonal cell lines; read-out: Ki value for displacement of [3H]-spiperone from the human dopamine D4 receptor subtype
Protocol: Moreover, these salts display a selective affinity for the D4 subtype relative to the D2 subtype.
Clonal cell lines expressing the human dopamine D4 receptor subtype were harvested in PBS and then lysed in 10 mM Tris-HCl pH 7.4 buffer containing 5 mM MgSO4 for 20 min on ice. Membranes were centrifuged at 50,000 g for 15 min at 4° C. and the resulting pellets resuspended in assay buffer (50 mM Tris-HCl pH 7.4 containing 5 mM EDTA, 1.5 mM CaCl2, 5 mM MgCl2, 5 mM KCl, 120 mM NaCl, and 0.1% ascorbic acid) at 20 mg/ml wet weight. Incubations were carried out for 60 min at room temperature (22° C.) in the presence of 0.05-2 nM [^3 H]-spiperone or 0.2 nM for displacement studies and were initiated by addition of 20-100 μg protein in a final assay volume of 0.5 ml. The incubation was terminated by rapid filtration over GF/B filters presoaked in 0.3% PEI and washed with 10 ml ice-cold 50 mM Tris-HCl, pH 7.4. Specific binding was determined by 10 μM apomorphine and radioactivity determined by counting in a LKB beta counter. Binding parameters were determined by non-linear least squares regression analysis, from which the inhibition constant Ki could be calculated for each test compound.

pKi: > 5.82
Structure (SMILES): C1=C(/C=C/c2ccccc2)CCN(Cc2coc3ccccc23)C1 [Example 1, (E)-3-[4-(2-Phenylethenyl)-1,2,3,6-tetrahydropyridin-1-yl]methylbenzo[b]furan methanesulfonate salt]
